The RepoRT retention time repository (doi:10.1016/j.foodchem.2018.09.045)

Experiment: RP, Thermo Scientific Syncronis C18, 100 × 2.1 mm, 1.7 µm, 0.3 mL/min, estimated dead time 0.73 min; A: water + 0.1% acetic acid; B: acetonitrile + 0.1% acetic acid; gradient (min/%B) 0/5 1/5 16/95
Details: stereoisomer not certain

Question: With `CC1OC(Oc2c(-c3ccc(O)c(O)c3)oc3cc(O)cc(O)c3c2=O)C(O)C(O)C1O` (stereo unspecified) as the compound, how does the LC retention time read?
Answer: The LC retention time was 7.17 min.

Question: For `O=C(C=Cc1ccc(O)c(O)c1)OC1CC(O)(C(=O)O)CC(O)C1O` (stereo unspecified), which LC retention time is on record?
Answer: Its LC retention time is 5.26 min.

Question: Which LC retention time does the source give for `O=C1CC(c2ccccc2)Oc2cc(O)cc(O)c21` (stereo unspecified) here?
Answer: Its LC retention time is 11.7 min.

Question: For `O=C1c2c(O)cc(O)cc2OC(c2ccccc2)C1O` (stereo unspecified), which LC retention time is on record?
Answer: The LC retention time was 9.74 min.

Question: Which LC retention time does the source give for `COc1ccc(-c2oc3cc(O)cc(O)c3c(=O)c2O)cc1` here?
Answer: Its LC retention time is 11.8 min.

Question: With `O=c1cc(-c2ccccc2)oc2cc(O)cc(O)c12` as the compound, how does the LC retention time read?
Answer: Its LC retention time is 11.6 min.

Question: For `O=c1ccc2cc(OC3OC(CO)C(O)C(O)C3O)c(O)cc2o1` (stereo unspecified), which LC retention time is on record?
Answer: The LC retention time was 4.91 min.

Question: With `O=c1c(O)c(-c2ccc(O)c(O)c2)oc2cc(O)cc(O)c12` as the compound, how does the LC retention time read?
Answer: The LC retention time was 8.24 min.

Question: With `CC1OC(OC2C(Oc3cc(O)c4c(c3)OC(c3ccc(O)cc3)CC4=O)OC(CO)C(O)C2O)C(O)C(O)C1O` (stereo unspecified) as the compound, how does the LC retention time read?
Answer: The LC retention time was 7.03 min.

Question: Which LC retention time does the source give for `COc1cc(C=CC(=O)O)cc(OC)c1O` here?
Answer: The LC retention time was 7.02 min.

Question: With `O=c1c(O)c(-c2ccccc2)oc2cc(O)cc(O)c12` as the compound, how does the LC retention time read?
Answer: Its LC retention time is 11.8 min.

Question: For `O=c1cc(-c2ccc(O)c(O)c2)oc2cc(O)cc(O)c12`, which LC retention time is on record?
Answer: Its LC retention time is 8.69 min.

Question: Which LC retention time does the source give for `O=C(O)Cc1ccc(O)cc1` here?
Answer: The LC retention time was 5.62 min.

Question: With `COc1cc(C(=O)O)ccc1O` as the compound, how does the LC retention time read?
Answer: Its LC retention time is 5.63 min.

Question: For `CC1OC(OCC2OC(Oc3c(-c4ccc(O)c(O)c4)oc4cc(O)cc(O)c4c3=O)C(O)C(O)C2O)C(O)C(O)C1O` (stereo unspecified), which LC retention time is on record?
Answer: Its LC retention time is 6.44 min.

Question: Which LC retention time does the source give for `COc1cc(C=CC=O)ccc1O` here?
Answer: The LC retention time was 7.9 min.

Question: Which LC retention time does the source give for `COc1ccc(-c2cc(=O)c3c(O)cc(O)cc3o2)cc1` here?
Answer: Its LC retention time is 12.2 min.

Question: Which LC retention time does the source give for `O=C(O)C=Cc1ccc(O)cc1` here?
Answer: The LC retention time was 6.68 min.

Question: For `COc1cc(O)c2c(=O)cc(-c3ccc(O)cc3)oc2c1`, which LC retention time is on record?
Answer: Its LC retention time is 10.8 min.

Question: With `O=c1c(O)c(-c2ccc(O)cc2)oc2cc(O)cc(O)c12` as the compound, how does the LC retention time read?
Answer: The LC retention time was 9.7 min.

Question: Which LC retention time does the source give for `COc1cc(-c2oc3cc(O)cc(O)c3c(=O)c2O)ccc1O` here?
Answer: Its LC retention time is 9.87 min.

Question: Which LC retention time does the source give for `O=C(O)c1ccc(O)c(O)c1` here?
Answer: The LC retention time was 4.44 min.

Question: Which LC retention time does the source give for `COc1cc(-c2cc(=O)c3c(O)cc(O)cc3o2)ccc1O` here?
Answer: Its LC retention time is 9.94 min.

Question: Which LC retention time does the source give for `COc1cc(C=CC(=O)O)ccc1O` here?
Answer: The LC retention time was 7.04 min.

Question: Which LC retention time does the source give for `O=C1CC(c2ccc(O)c(O)c2)Oc2cc(O)cc(O)c21` (stereo unspecified) here?
Answer: The LC retention time was 8.59 min.

Question: For `O=c1cc(-c2ccc(O)cc2)oc2cc(O)cc(O)c12`, which LC retention time is on record?
Answer: The LC retention time was 9.52 min.

Question: For `O=C(O)c1cc(O)ccc1O`, which LC retention time is on record?
Answer: Its LC retention time is 5.48 min.

Question: Which LC retention time does the source give for `O=C(O)c1ccc(O)cc1` here?
Answer: Its LC retention time is 5.41 min.

Question: Which LC retention time does the source give for `O=c1c(-c2ccc(O)cc2)coc2cc(O)cc(O)c12` here?
Answer: The LC retention time was 9.53 min.

Question: Which LC retention time does the source give for `O=c1c(OC2OC(CO)C(O)C(O)C2O)c(-c2ccc(O)c(O)c2)oc2cc(O)cc(O)c12` (stereo unspecified) here?
Answer: Its LC retention time is 6.71 min.

Question: Which LC retention time does the source give for `O=C1CC(c2ccc(O)cc2)Oc2cc(O)cc(O)c21` (stereo unspecified) here?
Answer: The LC retention time was 9.44 min.
